Assay results from article PMC5571211 (Scientific Reports, 2017).

What was measured:
15-LOX = 15-LOX activity (15-HETE) in intact neutrophils; assay type: cell-based, human; settings: A23187 and 20 µM AA, concentration-dependently elevated
Description: In order to examine 5-LOX product formation in intact human neutrophils and monocytes, freshly isolated cells were resuspended in PBS buffer containing 0.1% glucose and 1 mM CaCl2 (PGC buffer) to a final cell density of 5 × 10^6 or 2 × 10^6, respectively. […] 5-LOX product formation was stopped by addition of one volume of ice-cold methanol, samples were subjected to solid phase extraction after addition of 200 ng PGB1 as internal standard and 5-LOX products were analyzed by RP-HPLC as described above.

[1] = tested on: HEK293 cells expressing 5-LOX (deficient in FLAP); experiment: 5-LOX product formation in HEK293 cells expressing 5-LOX alone; assay type: cell-based; settings: HEK293 expressing 5-LOX, A23187 plus 3 µM AA
Description: HEK293 cells were cultured in monolayers (37 °C, 5% CO2) in DMEM containing FCS (10%), penicillin (100 U/mL) and streptomycin (100 µg/mL). HEK293 cell lines stably expressing 5-LOX with or without FLAP were selected using geneticin (400 µg/mL) with or without hygromycin (200 µg/mL), respectively, as previously described. Transfection of HEK293 was performed using pcDNA3.1 plasmids and lipofectamine according to the manufacturer’s instructions (Invitrogen, Darmstadt, Germany).
For analysis of 5-LOX product formation in HEK293 cells stably expressing 5-LOX with or without FLAP, cells were harvested by trypsinization, pelleted (1,200 rpm, 5 min, 4 °C) and resuspended in PGC buffer to a final concentration of 1 × 10^6 cells/mL. Aliquots were pre-incubated with test compounds or 0.1% DMSO for 15 min, respectively, and stimulated with 2.5 µM A23187 and 3 µM AA.

5-LOX/FLAP complex = biological target: T1, 5-LOX/FLAP complex (Homo sapiens, UniProt P20292); experiment: Proximity ligation assay of 5-LOX/FLAP complex assembly in monocytes; assay type: cell-based; settings: diflapolin 1 µM, MK886 0.3 µM, zileuton 3 µM
T1 construct: endogenous in cells; host or cells: freshly isolated human monocytes (immunofluorescence also in neutrophils)
T1 sequence (P20292 1-161): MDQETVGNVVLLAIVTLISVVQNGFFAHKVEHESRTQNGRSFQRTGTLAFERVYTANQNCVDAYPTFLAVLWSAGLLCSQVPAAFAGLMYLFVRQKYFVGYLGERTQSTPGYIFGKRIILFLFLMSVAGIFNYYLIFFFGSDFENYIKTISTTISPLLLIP
Description: In situ protein interaction of 5-LOX and FLAP was analyzed by proximity ligation assay as described before[37] and referring to the manufacturer’s protocol. In brief, freshly isolated monocytes were treated as described for IF above. Overnight incubations with primary antibodies were then treated for 1 h (37 °C) with oligonucleotide-labeled specific secondary antibodies (PLA probes anti-mouse MINUS and anti-rabbit PLUS). Formation of circled DNA sequences was induced by addition of ligase and oligonucleotide mixture (30 min at 37 °C). Rolling-circle-amplification of newly generated DNA template was performed (90 min, 37 °C) including hybridization of fluorescently-labeled oligonucleotides within the formed DNA strands, resulting in visualization of protein-protein interactions recognized as magenta-stained dots. Nuclear DNA staining with DAPI and image acquisition was performed as described above. Overview images were obtained using a Plan Neofluar 40/1.30 Oil (DIC III) objective (Carl Zeiss).

| Structure (SMILES) | 15-HETE formation (15-LOX) | inhibition of 5-LOX product formation [1] | 5-LOX/FLAP complex assembly (PLA) (5-LOX/FLAP complex) |
| --- | --- | --- | --- |
| Cc1cc(OCc2nc3ccccc3s2)ccc1NC(=O)Nc1ccc(Cl)c(Cl)c1 [diflapolin, N-[4-(benzothiazol-2-ylmethoxy)-2-methylphenyl]-N′-(3,4-dichlorophenyl)urea] | up to 200 % of the vehicle control | hardly impaired |  |
| CC(C)c1ccc2c(c1)c(SC(C)(C)C)c(CC(C)(C)C(=O)O)n2Cc1ccc(Cl)cc1 [MK886, 3-[1-(4-chlorobenzyl)-3-t-butyl-thio-5-isopropylindol-2-yl]-2,2 - dimethylpropanoic acid] |  |  | comparable effects |
